Assay results taken from patent US9096589B2, “Heteroaromatic phenylimidazole derivatives as PDE10A enzyme inhibitors” (H. Lundbeck A/S, priority 2009, dated 2015).

Target: PDE10A (Homo sapiens (Human), UniProt Q9Y233)
Assay: PDE10A inhibition assay
Type: biochemical
Experimental: Active PDE10A enzyme is prepared in a number of ways for use in PDE assays (Loughney, K. et al. Gene 1999, 234, 109-117; Fujishige, K. et al. Eur J. Biochem. 1999, 266, 1118-1127 and Soderling, S. et al. Proc. Natl. Acad. Sci. 1999, 96, 7071-7076). PDE10A can be expressed as full-length proteins or as truncated proteins, as long as they express the catalytic domain. PDE10A can be prepared in different cell types, for example insect cells or E. coli. An example of a method to obtain catalytically active PDE10A is as follows: The catalytic domain of human PDE10A (amino acids 440-779 from the sequence with accession number NP 006652) is amplified from total human brain total RNA by standard RT-PCR and is cloned into the BamH1 and Xho1 sites of the pET28a vector (Novagen). Expression in coli is performed according to standard protocols. Briefly, the expression plasmids are transformed into the BL21(DE3) E. coli strain, and 50 mL cultures inoculated with the cells allowed to grow to an OD600 of 0.4-0.6 before protein expression is induced with 0.5 mM IPTG. Following induction, the cells are incubated overnight at room temperature, after which the cells are collected by centrifugation. Cells expressing PDE10A are resuspended in 12 mL (50 mM TRIS-HCl-pH8.0, 1 mM MgCl2 and protease inhibitors). The cells are lysed by sonication, and after all cells are lysed, TritonX100 is added according to Novagen protocols.
A PDE10A assay may for example, be performed as follows: The assay is performed in 60 uL samples containing a fixed amount of the relevant PDE enzyme (sufficient to convert 20-25% of the cyclic nucleotide substrate); a buffer (50 mM HEPES7.6; 10 mM MgCl2; 0.02% Tween20), 0.1 mg/ml BSA, 225 pCi of ^3H-labelled cyclic nucleotide substrate, tritium labeled cAMP to a final concentration of 5 nM and varying amounts of inhibitors. Reactions are initiated by addition of the cyclic nucleotide substrate, and reactions are allowed to proceed for one hr at room temperature before being terminated through mixing with 15 uL 8 mg/mL yttrium silicate SPA beads (Amersham). The beads are allowed to settle for one hr in the dark before the plates are counted in a Wallac 1450 Microbeta counter. The measured signal can be converted to activity relative to an uninhibited control (100%) and IC50 values can be calculated using the Xlfit extension to EXCEL.

Chain of PDE10A (Q9Y233 716-1055): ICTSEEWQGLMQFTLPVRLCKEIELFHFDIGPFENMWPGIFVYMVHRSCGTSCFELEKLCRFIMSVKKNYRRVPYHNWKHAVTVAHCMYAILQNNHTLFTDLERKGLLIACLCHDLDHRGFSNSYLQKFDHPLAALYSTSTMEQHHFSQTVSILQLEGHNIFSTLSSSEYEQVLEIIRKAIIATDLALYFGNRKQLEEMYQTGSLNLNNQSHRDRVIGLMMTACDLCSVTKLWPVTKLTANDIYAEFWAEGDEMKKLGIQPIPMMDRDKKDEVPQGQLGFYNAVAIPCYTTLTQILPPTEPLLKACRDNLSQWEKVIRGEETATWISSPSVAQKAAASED

Compound | IC50 [nM]
Cc1cc(C)n2cc(CCc3nc(-c4cccs4)cn3CCN3CCOCC3)nc2n1 [5,7-Dimethyl-2-{2-[1-(2-morpholin-4-yl-ethyl)-4-thiophen-2-yl-1H-imidazol-2-yl]-ethyl}-imidazo[1,2-a]pyrimidine] | 36
Cc1cccc2nc(CCc3nc(-c4cccs4)cn3C[C@@H](O)CN(C)CCO)nn12 [(S)-1-[(2-Hydroxy-ethyl)-methyl-amino]-3-{2-[2-(5-methyl-[1,2,4]triazolo[1,5-a]pyridin-2-yl)-ethyl]-4-thiophen-2-yl-imidazol-1-yl}-propan-2-ol] | 16
Cc1cc(C)n2cc(CCc3nc(-c4cccs4)cn3COCC[Si](C)(C)C)nc2n1 [5,7-Dimethyl-2-{2-[4-thiophen-2-yl-1-(2-trimethylsilanyl-ethoxymethyl)-1H-imidazol-2-yl]-ethyl}-imidazo[1,2-a]pyrimidine] | 9.6
COc1cccn2nc(CCc3nc(-c4ccc(C)o4)cn3C)nc12 [8-Methoxy-2-{2-[1-methyl-4-(5-methyl-furan-2-yl)-1H-imidazol-2-yl]-ethyl}-[1,2,4]triazolo[1,5-a]pyridine] | 56
Cc1ccc(-c2cn(C)c(CCc3nc4c(F)cccn4n3)n2)o1 [8-Fluoro-2-{2-[1-methyl-4-(5-methyl-furan-2-yl)-1H-imidazol-2-yl]-ethyl}-[1,2,4]triazolo[1,5-a]pyridine] | 94
COc1cccn2nc(/C=C/c3nc(-c4ccoc4)cn3C)nc12 [2-[(E)-2-(4-Furan-3-yl-1-methyl-1H-imidazol-2-yl)-vinyl]-8-methoxy-[1,2,4]triazolo[1,5-a]pyridine] | 47
CCN(CC)C[C@H](O)Cn1cc(-c2cccs2)nc1CCc1nc2cccc(C)n2n1 [(S)-1-Diethylamino-3-{2-[2-(5-methyl-[1,2,4]triazolo[1,5-a]pyridin-2-yl)-ethyl]-4-thiophen-2-yl-imidazol-1-yl}-propan-2-ol] | 77
Cc1cnc(C)n2nc(CCc3nc(-c4nccs4)cn3C)nc12 [,8-Dimethyl-2-[2-(1-methyl-4-thiazol-2-yl-1H-imidazol-2-yl)-ethyl]-[1,2,4]triazolo[1,5-c]pyrimidine] | 12
COc1cccn2nc(/C=C/c3nc(-c4cccs4)cn3C)nc12 [8-Methoxy-2-[(E)-2-(1-methyl-4-thiophen-2-yl-1H-imidazol-2-yl)-vinyl]-[1,2,4]triazolo[1,5-a]pyridine] | 62
COc1ccc(C)n2nc(CCc3nc(-c4cncs4)cn3C)nc12 [8-Methoxy-5-methyl-2-[2-(1-methyl-4-thiazol-5-yl-1H-imidazol-2-yl)-ethyl]-[1,2,4]triazolo[1,5-a]pyridine] | 9.2
COc1ccc(C)n2nc(CCc3nc(-c4cccs4)cn3C)nc12 [8-Methoxy-5-methyl-2-[2-(1-methyl-4-thiophen-2-yl-1H-imidazol-2-yl)-ethyl]-[1,2,4]triazolo[1,5-a]pyridine] | 1.5
COc1cccn2nc(CCc3nc(-c4cccnc4)c[nH]3)nc12 [8-Methoxy-2-[2-(4-pyridin-3-yl-1H-imidazol-2-yl)-ethyl]-[1,2,4]triazolo[1,5-a]pyridine] | 270
COCC(O)Cn1cc(-c2cccs2)nc1CCc1cn2c(C)cc(C)nc2n1 (stereo not drawn) [1-{2-[2-(5,7-Dimethyl-imidazo[1,2-a]pyrimidin-2-yl)-ethyl]-4-thiophen-2-yl-imidazol-1-yl}-3-methoxy-propan-2-ol] | 7.9
Cc1ncc(C)n2nc(CCc3nc(-c4cccnc4)cn3C)nc12 [5,8-Dimethyl-2-[2-(1-methyl-4-pyridin-3-yl-1H-imidazol-2-yl)-ethyl]-[1,2,4]triazolo[1,5-a]pyrazine] | 8.9
Cc1cccc2nc(CCc3nc(-c4cccs4)c[nH]3)nn12 [5-Methyl-2-[2-(4-thiophen-2-yl-1H-imidazol-2-yl)-ethyl]-[1,2,4]triazolo[1,5-a]pyridine] | 0.54
CNCC[C@H](O)Cn1cc(-c2cccs2)nc1CCc1nc2cccc(C)n2n1 [(S)-4-Methylamino-1-{2-[2-(5-methyl-[1,2,4]triazolo[1,5-a]pyridin-2-yl)-ethyl]-4-thiophen-2-yl-imidazol-1-yl}-butan-2-ol] | 51
Cc1ccc(C)n2nc(CCc3nc(-c4cscn4)cn3C)nc12 [5,8-Dimethyl-2-[2-(1-methyl-4-thiazol-4-yl-1H-imidazol-2-yl)-ethyl]-[1,2,4]triazolo[1,5-a]pyridine] | 0.4

Compound | IC50 [nM]
COc1ccc(C)n2nc(/C=C/c3nc(-c4cccs4)cn3C)nc12 [8-Methoxy-5-methyl-2-[(E)-2-(1-methyl-4-thiophen-2-yl-1H-imidazol-2-yl)-vinyl]-[1,2,4]triazolo[1,5-a]pyridine] | 2.7
Cc1ccc(C)n2nc(CCc3nc(-c4cccnc4)cn3C)nc12 [5,8-Dimethyl-2-[2-(1-methyl-4-pyridin-3-yl-1H-imidazol-2-yl)-ethyl]-[1,2,4]triazolo[1,5-a]pyridine] | 5.7
Cc1cccc2nc(CCc3nc(-c4cccs4)cn3C)nn12 [5-Methyl-2-[2-(1-methyl-4-thiophen-2-yl-1H-imidazol-2-yl)-ethyl]-[1,2,4]triazolo[1,5-a]pyridine] | 9.2
COc1cccn2nc(/C=C/c3nc(-c4ccsc4)cn3C)nc12 [8-Methoxy-2-[(E)-2-(1-methyl-4-thiophen-3-yl-1H-imidazol-2-yl)-vinyl]-[1,2,4]triazolo[1,5-a]pyridine] | 52
COc1cccn2nc(CCc3nc(-c4cscc4C)cn3C)nc12 [8-Methoxy-2-{2-[1-methyl-4-(4-methyl-thiophen-3-yl)-1H-imidazol-2-yl]-ethyl}-[1,2,4]triazolo[1,5-a]pyridine] | 37
Cc1cccc2nc(CCc3nc(-c4cccs4)cn3C[C@@H](O)CN(C)C(C)C)nn12 [(S)-1-(Isopropyl-methyl-amino)-3-{2-[2-(5-methyl-[1,2,4]triazolo[1,5-a]pyridin-2-yl)-ethyl]-4-thiophen-2-yl-imidazol-1-yl}-propan-2-ol] | 97
Cc1ncc(C)n2nc(CCc3nc(-c4cscn4)cn3C)nc12 [5,8-Dimethyl-2-[2-(1-methyl-4-thiazol-4-yl-1H-imidazol-2-yl)-ethyl]-[1,2,4]triazolo[1,5-a]pyrazine] | 1.29
COc1cccn2nc(/C=C/c3nc(-c4cncs4)cn3C)nc12 [8-Methoxy-2-[(E)-2-(1-methyl-4-thiazol-5-yl-1H-imidazol-2-yl)-vinyl]-[1,2,4]triazolo[1,5-a]pyridine] | 85
Cc1cc(C)n2cc(CCc3nc(-c4cccs4)cn3CC(O)CF)nc2n1 (stereo not drawn) [1-{2-[2-(5,7-Dimethyl-imidazo[1,2-a]pyrimidin-2-yl)-ethyl]-4-thiophen-2-yl-imidazol-1-yl}-3-fluoro-propan-2-ol] | 14
CCCn1cc(-c2cccnc2)nc1CCc1nc2cccc(C)n2n1 [5-Methyl-2-[2-(1-propyl-4-pyridin-3-yl-1H-imidazol-2-yl)-ethyl]-[1,2,4]triazolo[1,5-a]pyridine] | 49
CNC[C@H](O)Cn1cc(-c2cccs2)nc1CCc1nc2cccc(C)n2n1 [(S)-1-Methylamino-3-{2-[2-(5-methyl-[1,2,4]triazolo[1,5-a]pyridin-2-yl)-ethyl]-4-thiophen-2-yl-imidazol-1-yl}-propan-2-ol] | 70
COc1ccc(C)n2nc(CCc3nc(-c4cccnc4)cn3C)nc12 [8-Methoxy-5-methyl-2-[2-(1-methyl-4-pyridin-3-yl-1H-imidazol-2-yl)-ethyl]-[1,2,4]triazolo[1,5-a]pyridine] | 24
Cc1cccc2nc(CCc3nc(-c4cccs4)cn3C[C@@H](O)CNCCO)nn12 [(S)-1-(2-Hydroxy-ethylamino)-3-{2-[2-(5-methyl-[1,2,4]triazolo[1,5-a]pyridin-2-yl)-ethyl]-4-thiophen-2-yl-imidazol-1-yl}-propan-2-ol] | 30
Cc1cccc2nc(CCc3nc(-c4cccs4)cn3C[C@@H](O)CN(C)C)nn12 [(S)-1-Dimethylamino-3-{2-[2-(5-methyl-[1,2,4]triazolo[1,5-a]pyridin-2-yl)-ethyl]-4-thiophen-2-yl-imidazol-1-yl}-propan-2-ol] | 47
COc1cccn2nc(CCc3nc(-c4cncs4)c[nH]3)nc12 [8-Methoxy-2-[2-(4-thiazol-5-yl-1H-imidazol-2-yl)-ethyl]-[1,2,4]triazolo[1,5-a]pyridine] | 62
Cc1cccn2nc(CCc3nc(-c4cccnc4)c[nH]3)nc12 [8-Methyl-2-[2-(4-pyridin-3-yl-1H-imidazol-2-yl)-ethyl]-[1,2,4]triazolo[1,5-a]pyridine] | 64
